Measured values taken from patent publication US12691092B2, “Method for reducing cutaneous skin scarring by pre-emptive priming and compounds and compositions for its implementation” (SOS SCIENCE OF SKIN LTD, priority 2020, dated 2026).

How the values were obtained:
HBB, HBA1, HBA2 = test: mRNA sequencing of scar biopsies; format: in vivo, human; conditions: group-1, week 4
Experimental: (§1) A double-blind randomized placebo-controlled trial was conducted using a temporal punch-biopsy model. The punch biopsy and topical application methodology used in the study is illustrated in FIG. 1, namely showing pre-injury pre-emptive priming (7-days), pre-injury pre-emptive priming (3-days), day of injury (immediate application on day 0), post-injury (delayed 2 weeks post injury) including biopsy time points and time of topical applications. Each group applied both placebo and topical formulations twice daily for the duration of the study until week 8, with only the starting time point differing between groups Participants were split into 4 groups (n=10 in each group) in order to compare different modes (timings) of commencement of the topical application: • Group-1: Pre-emptive Priming (7-days): pre-injury • Group-2: Pre-emptive Priming (3-days): pre-injury • Group-3: Immediate (0-day): day-of-injury • Group-4: Delayed (14-days): post-injury Clinical quantitative devices were used to objectively monitor cutaneous healing at weekly intervals and punch biopsies were performed on day 0 (uninjured skin) and at weeks 4 and 8 for protein and gene expression analyses. […] Excisional skin biopsies in upper arms were evaluated weekly with multiple quantitative devices over an 8-week period. […]

Hemeoxygenase-1 (HO-1) = test: HO-1 immunohistochemical marker (anti-oxidant effect); format: in vivo, human; conditions: week 4, all groups, p<0.01
Experimental: as §1

elastin [1] = test: Immunohistochemical analysis of elastin in scar biopsies; format: in vivo, human
Experimental: A double-blind randomized placebo-controlled trial was conducted using a temporal punch-biopsy model. The punch biopsy and topical application methodology used in the study is illustrated in FIG. 1, namely showing pre-injury pre-emptive priming (7-days), pre-injury pre-emptive priming (3-days), day of injury (immediate application on day 0), post-injury (delayed 2 weeks post injury) including biopsy time points and time of topical applications. Each group applied both placebo and topical formulations twice daily for the duration of the study until week 8, with only the starting time point differing between groups Participants were split into 4 groups (n=10 in each group) in order to compare different modes (timings) of commencement of the topical application: • Group-1: Pre-emptive Priming (7-days): pre-injury • Group-2: Pre-emptive Priming (3-days): pre-injury • Group-3: Immediate (0-day): day-of-injury • Group-4: Delayed (14-days): post-injury Clinical quantitative devices were used to objectively monitor cutaneous healing at weekly intervals and punch biopsies were performed on day 0 (uninjured skin) and at weeks 4 and 8 for protein and gene expression analyses. In the trial, topical EGCG and a placebo topical were applied twice daily for the duration of the trial until week 8 with only the starting time points differing between groups. Clinical and experimental analysis involved use of non-invasive devices as well as protein and gene studies. Excisional skin biopsies in upper arms were evaluated weekly with multiple quantitative devices over an 8-week period. Immunohistochemical analyses, mRNA sequencing and QRT-PCR were performed on tissue biopsies. […] There was also a significant increase at week-4 in group-1 only by 12% with EGCG (P=0.01). Between group analysis indicated a significant difference at week-8 (p=0.001). The greatest differences were in group-1 compared to groups-3 by 20% (p=0.008) and group-4 by 20% (p=0.003) and in group-2 compared to group-4 by 17% (p=0.009).

elastin [2] = test: Gene expression analysis of elastin; format: in vivo, human; conditions: weeks 4 and 8; significant in groups-1 to 3 at week 8 (p<0.05)
Experimental: as §1

human skin models = conditions: ex vivo human skin models; cited from earlier work
zone of injury = conditions: topical EGCG, zonal priming; cited from earlier work

O=C(OC1Cc2c(O)cc(O)cc2OC1c1cc(O)c(O)c(O)c1)c1cc(O)c(O)c(O)c1 (single isomer, unassigned; (-)) [EGCG, (-)-epigallocatechin-3-gallate]
mRNA sequencing: HBB, HBA1 and HBA2 expression with EGCG compared to placebo (HBB, HBA1, HBA2): reduced
HO-1 levels, EGCG-treated samples compared to placebo (Hemeoxygenase-1 (HO-1)): significantly higher
Elastin levels in primed uninjured skin (elastin [1]; primed uninjured skin prior to injury): increases elastin levels
Elastin (immunohistochemical) increase with EGCG (elastin [1]; week 4, group-1 only, P=0.01): 12%
Elastin (immunohistochemical), EGCG-treated samples compared to placebo (elastin [1]; week 8, all groups, p<0.01): up-regulated
Elastin: difference of group-2 compared to group-4 (elastin [1]; week 8, 3-day priming vs delayed, p=0.009): 17%
Elastin: difference of group-1 compared to group-4 (elastin [1]; week 8, 7-day priming vs delayed, p=0.003): 20%
Elastin: difference of group-1 compared to group-3 (elastin [1]; week 8, 7-day priming vs immediate, p=0.008): 20%
Elastin gene expression, EGCG-treated samples compared to placebo (elastin [2]): upregulation
Effect on scar growth (human skin models): inhibited growth and induced scar shrinkage
Mast cell (MC) numbers (human skin models): significantly reduced mast cell (MC) numbers
Scar outcome, immediate application to zone of injury compared with delayed application two-weeks post-wounding (zone of injury): reduced scar thickness and angiogenesis, plus increased hydration and elasticity
